Experimental data from patent US9259452B2, “Deacetylase inhibitor therapy” (Celgene Corporation, priority 2006, dated 2016).

Legend:
Assay type in all cases: in vivo, human
[1] = ECG evaluation of T-wave (grade 1) and ST segment (grade 2) abnormalities, phase II trial of romidepsin in T-cell lymphoma patients; conditions: for ECGs Grade 0 (no T-wave/ST segment abnormality) / ECGs Grade 1 (T-wave abnormality) / ECGs Grade 2 (ST segment depression): all doses, n = 42 patients
From the text: (§1) The protocol (NCI 01-C-0049 or 1312) and informed consent were approved by the Institutional Review Board of the National Cancer Institute. All data used in this analysis were obtained from patients who signed an informed consent and were enrolled and treated at the NIH Warren Grant Magnuson Clinical Center. Toxicities were reported using the National Cancer Institute Common Toxicity Criteria, CTC version 2.0. The Inclusion Criteria required measurable disease, an age of 18 years or older, an ECOG performance status of 0, 1 or 2, and a life expectancy of >12 wk. Required laboratory values included AGC≧1000/μL, platelets≧100,000/μL, bilirubin <1.5× the institutional upper limit of normal (ULN), AST <3×ULN, and creatinine <1.5×ULN. Patients with a myocardial infarction within the previous 6 months, a left ventricular ejection fraction (LVEF) below normal (<45% if performed by MUGA, or <50% if performed by echocardiogram or cardiac MRI), a corrected QT interval of >500 ms, unstable angina, or third degree heart block (unless with pacemaker) were not eligible to enroll.
(§2) Subsequently, the protocol was amended and all patients were treated on days 1, 8 and 15 of a 28 day cycle, with a starting dose of 14 mg/m^2. This change was made for improved patient tolerability. […] Provisions for dose reduction were made in the case of grade 3 or 4 toxicity. Alternatively, a dose increase was allowed for patients who had no serious toxicities.

[2] = Post-treatment echocardiogram, global LV function
Protocol: Post treatment evaluation of cardiac function (LVEF): Echocardiograms to evaluate cardiac function were also performed on the day following the last dose of the cycle; day 6 for patients treated on days 1 and 5, or day 16 for patients treated on days 1, 8 and 15.
Post-treatment global LV function: To determine whether the observed ECG abnormalities were associated with acute LV wall motion abnormalities, echocardiograms were performed on the day following the last dose of the cycle (d 6 for patients treated on days 1 and 5, and day 16 for patients treated on days 1, 8, and 15).

[3] = Toxicities and cardiac events observed on the phase II trial
From the text: as §1, §2

[4] = Pre-treatment cycle 2 day 1 (n = 34), worst grade cycle 1: 1
[5] = Pre-treatment cycle 2 day 1 (n = 34), worst grade cycle 1: 2
[6] = Pre-treatment cycle 3 day 1 (n = 28), worst grade cycle 2: 1
[7] = Pre-treatment cycle 3 day 1 (n = 28), worst grade cycle 2: 2
[8] = Pre-treatment day 8 (n = 37), worst grade post-day 1 treatment 0
[9] = Pre-treatment day 8 (n = 37), worst grade post-day 1 treatment 1
[10] = Pre-treatment day 8 (n = 37), worst grade post-day 1 treatment 2
[11] = Pre-treatment day 15 (n = 36), worst grade post-day 8 treatment 0
[12] = Pre-treatment day 15 (n = 36), worst grade post-day 8 treatment 1
[13] = Pre-treatment day 15 (n = 36), worst grade post-day 8 treatment 2
[14] = Day after treatment, listed as depsipeptide
[15] = Immediate post infusion, listed as depsipeptide
[16] = Pre-treatment ECGs, listed as depsipeptide
[17] = any time during treatment, 37 patients on day 1, 8, 15 schedule
[18] = first dose of the first cycle (n = 42), Day 2
[19] = first dose of the first cycle (n = 42), Day 3
[20] = first dose of the first cycle (n = 42), Post infusion
[21] = first dose of the first cycle (n = 42), Pre (baseline)
[22] = among 123 ECGs, day 6 or day 16

For `C/C=C1\NC(=O)[C@H]2CSSCC/C=C/[C@H](CC(=O)N[C@H](C(C)C)C(=O)N2)OC(=O)[C@H](C(C)C)NC1=O` [romidepsin, (1S,4S,10S,16E,21R)-7-[(2Z)-ethylidene]-4,21-diisopropyl-2-oxa-12,13-dithia-5,8,20,23-tetraazabicyclo[8.7.6]tricos-16-ene-3,6,9,19,22-pentanone], which “Patients with worst ECG Grade 0” value ([1]; All cycles, 42 patients) is on record?
Its value is 2%.

And the “Patients with worst ECG Grade 1” value ([1]; All cycles, 42 patients)?
The value was 45%.

What about the “Patients with worst ECG Grade 2” value ([1]; All cycles, 42 patients) of the same molecule?
Its value is 52%.

And the “Patients with worst ECG Grade 0” value ([1]; Cycle 1 only, 42 patients)?
The value was 19%.

And the “Patients with worst ECG Grade 1” value ([1]; Cycle 1 only, 42 patients)?
Its value is 57%.

And the “Patients with worst ECG Grade 2” value ([1]; Cycle 1 only, 42 patients)?
The value was 24%.

What about the “Patients with ECG grade 0 at presentation for next cycle” value ([1]; Pre-treatment cycle 2 day 1 (n = 34), worst grade cycle 1: 0) of the same molecule?
Its value is 6.

And the “Patients with ECG grade 0 at presentation for next cycle” value [1, 4]?
Its value is 18.

And the “Patients with ECG grade 1 at presentation for next cycle” value [1, 4]?
Its value is 3.

And the “Patients with ECG grade 0 at presentation for next cycle” value [1, 5]?
The value was 4.

What about the “Patients with ECG grade 1 at presentation for next cycle” value [1, 5] of the same molecule?
Its value is 2.

And the “Patients with ECG grade 2 at presentation for next cycle” value [1, 5]?
The value was 1.

What about the “Patients with ECG grade 0 at presentation for next cycle” value ([1]; Pre-treatment cycle 3 day 1 (n = 28), worst grade cycle 2: 0) of the same molecule?
Its value is 2.

What about the “Patients with ECG grade 0 at presentation for next cycle” value [1, 6] of the same molecule?
The value was 16.

What about the “Patients with ECG grade 1 at presentation for next cycle” value [1, 6] of the same molecule?
The value was 1.

What about the “Patients with ECG grade 0 at presentation for next cycle” value [1, 7] of the same molecule?
The value was 7.

And the “Patients with ECG grade 1 at presentation for next cycle” value [1, 7]?
Its value is 2.

And the “Patients with ECG grade 0 at presentation for next cycle” value ([1]; Pre-treatment cycle 4 day 1 (n = 20), worst grade cycle 3: 1)?
The value was 14.

And the “Patients with ECG grade 0 at presentation for next cycle” value ([1]; Pre-treatment cycle 4 day 1 (n = 20), worst grade cycle 3: 2)?
The value was 6.

And the “Patients with ECG grade 0 at presentation for next dose” value [1, 8]?
The value was 14.

And the “Patients with ECG grade 1 at presentation for next dose” value [1, 8]?
The value was “two”.

What about the “Patients with ECG grade 1 at presentation for next dose” value ([1]; Pre-treatment day 8 (n = 37), worst grade post-day 1 treatment 0, listed as depsipeptide) of the same molecule?
Its value is 2.

What about the “Patients with ECG grade 0 at presentation for next dose” value [1, 9] of the same molecule?
Its value is “nine”.

And the “Patients with ECG grade 1 at presentation for next dose” value [1, 9]?
The value was 8.

What about the “Patients with ECG grade 2 at presentation for next dose” value [1, 9] of the same molecule?
The value was 1.

What about the “Patients with ECG grade 0 at presentation for next dose” value ([1]; Pre-treatment day 8 (n = 37), worst grade post-day 1 treatment 1, listed as depsipeptide) of the same molecule?
Its value is 9.

What about the “Patients with ECG grade 0 at presentation for next dose” value [1, 10] of the same molecule?
The value was “two”.

And the “Patients with ECG grade 1 at presentation for next dose” value [1, 10]?
Its value is 1.

What about the “Patients with ECG grade 0 at presentation for next dose” value ([1]; Pre-treatment day 8 (n = 37), worst grade post-day 1 treatment 2, listed as depsipeptide) of the same molecule?
Its value is 2.

And the “Patients with ECG grade 0 at presentation for next dose” value [1, 11]?
The value was 6.

What about the “Patients with ECG grade 1 at presentation for next dose” value [1, 11] of the same molecule?
The value was 3.

And the “Patients with ECG grade 0 at presentation for next dose” value [1, 12]?
The value was 13.

What about the “Patients with ECG grade 1 at presentation for next dose” value [1, 12] of the same molecule?
Its value is 10.

What about the “Patients with ECG grade 0 at presentation for next dose” value [1, 13] of the same molecule?
The value was 2.

What about the “Patients with ECG grade 1 at presentation for next dose” value [1, 13] of the same molecule?
The value was 1.

And the “Patients with ECG grade 2 at presentation for next dose” value [1, 13]?
The value was 1.

And the “ECGs Grade 0 (no T-wave/ST segment abnormality)” value ([1]; Day after treatment)?
Its value is 20%.

And the “ECGs Grade 1 (T-wave abnormality)” value ([1]; Day after treatment)?
The value was 69%.

What about the “ECGs Grade 2 (ST segment depression)” value ([1]; Day after treatment) of the same molecule?
Its value is 11%.

And the “ECGs Grade 1 (T-wave abnormality)” value [1, 14]?
Its value is 69%.

What about the “ECGs Grade 2 (ST segment depression)” value [1, 14] of the same molecule?
The value was 11%.

What about the “ECGs Grade 0 (no T-wave/ST segment abnormality)” value ([1]; Immediate post infusion) of the same molecule?
Its value is 49%.

And the “ECGs Grade 1 (T-wave abnormality)” value ([1]; Immediate post infusion)?
The value was 48%.

And the “ECGs Grade 2 (ST segment depression)” value ([1]; Immediate post infusion)?
Its value is 3%.

What about the “ECGs Grade 1 (T-wave abnormality)” value [1, 15] of the same molecule?
Its value is 48%.

What about the “ECGs Grade 2 (ST segment depression)” value [1, 15] of the same molecule?
The value was 3%.

What about the “ECGs Grade 0 (no T-wave/ST segment abnormality)” value ([1]; Pre-treatment ECGs) of the same molecule?
Its value is 76%.

What about the “ECGs Grade 1 (T-wave abnormality)” value ([1]; Pre-treatment ECGs) of the same molecule?
Its value is 22%.

What about the “ECGs Grade 2 (ST segment depression)” value ([1]; Pre-treatment ECGs) of the same molecule?
Its value is 2%.

And the “ECGs Grade 1 (T-wave abnormality)” value [1, 16]?
Its value is 22%.

And the “ECGs Grade 2 (ST segment depression)” value [1, 16]?
The value was 2%.

And the “Patients with worst ECG Grade 1” value [1, 17]?
Its value is 43%.

And the “Patients with worst ECG Grade 2” value [1, 17]?
Its value is 54%.

And the “ECGs Grade 0” value [1, 18]?
Its value is 49%.

What about the “ECGs Grade 1” value [1, 18] of the same molecule?
The value was 44%.

What about the “ECGs Grade 2” value [1, 18] of the same molecule?
Its value is 7%.

And the “ECGs Grade 0” value [1, 19]?
Its value is 55%.

What about the “ECGs Grade 1” value [1, 19] of the same molecule?
The value was 45%.

What about the “ECGs Grade 0” value [1, 20] of the same molecule?
Its value is 82%.

And the “ECGs Grade 1” value [1, 20]?
Its value is 18%.

And the “ECGs Grade 0” value [1, 21]?
The value was 95%.

What about the “ECGs Grade 1” value [1, 21] of the same molecule?
The value was 5%.

What about the “ST segment depression, grade 2” value ([1]; first dose of the first cycle, day 3) of the same molecule?
Its value is “not observed”.

And the “Grade 2 ECGs meeting criteria consistent with ischemia (1 mm ST segment depression 80 msec after end of QRS)” value ([1]; of 69 ECGs scored grade 2, cardiologist review)?
The value was 45%.

What about the “Patients returning for the second cycle with no evidence of T-wave or ST-segment abnormalities” value ([1]; of the 34 patients returning for cycle 2) of the same molecule?
Its value is “Twenty-eight”.

And the “ECGs with ST-segment depression obtained on the same day as the echocardiogram” value [2, 22]?
The value was 23.

What about the “ECGs with T-wave flattening obtained on the same day as the echocardiogram” value [2, 22] of the same molecule?
The value was 82.

What about the “ECGs with no abnormalities obtained on the same day as the echocardiogram” value [2, 22] of the same molecule?
Its value is 18.

What about the “Echocardiograms demonstrating a change from baseline (acute LV wall motion)” value ([2]; day following last dose of the cycle (day 6 or day 16), 145 echocardiograms, 34 patients) of the same molecule?
The value was “None”.

What about the Observed toxicities ([3]; 42 patients, phase II trial) of the same molecule?
The Observed toxicities was “primarily nausea and fatigue”.

And the “Pre-treatment and post-treatment EP studies” value ([3]; one patient with significant ectopy prior to initiation of protocol)?
Its value is “no change in intracardiac conduction or inducibility of any arrhythmias”.

What about the “Cardiac event in a patient with QTc greater than 500” value ([3]; telemetry, abnormal magnesium and potassium levels) of the same molecule?
Its value is 12 beat run of VT that was asymptomatic and did not recur.
